US20020115624A1, “Alpha gylcosylceramides for treating bacterial and fungal infections” (priority 2000, published 2002)

Columns and labels:
M. tuberculosis (Erdman) = experiment: Intravenous inoculation model of tuberculosis: survival of infected BALB/c mice treated with α-galactosylceramide; type: in vivo
[1] = test system: NK, B, CD8+, and CD4+ lymphocytes; conditions: cited from earlier work
NKT cells = conditions: specificity for the α-linkage; cited from earlier work

Row | Compound | survival compared to the control group (M. tuberculosis (Erdman); BALB/c mice, 5×10^5 cfu IV, 2 ug IP on days 1, 5 and 9, nine mice per group) | mean survival time (MST) (M. tuberculosis (Erdman); BALB/c mice, 5×10^5 cfu IV, 2 ug IP on days 1, 5 and 9 after infection, vehicle MST 60 days, p<0.0001 by log-rank test) [days] | bacteriological cure (M. tuberculosis (Erdman); preliminary experiments, all of the infected mice died despite treatment) | time to activation of NK, B, CD8+ and CD4+ lymphocytes (induction of CD69, CD80, CD86) ([1]; administration to mice in vivo) [h] | time to detectable increase in serum IFN-γ ([1]; following in vivo treatment of mice) [h] | activation of the immune system ([1]; mice that lack CD1d (CD1d −/−) or lack NKT cells (Jα281−/−)) | activation of NKT cells (NKT cells)
1 | CCCCCCCCCCCCCCCCCCCCCCCCCC(=O)N[C@@H](CO[C@H]1O[C@H](CO)[C@H](O)[C@H](O)[C@H]1O)[C@H](O)[C@H](O)CCCCCCCCCCCCCC [α-galactosylceramide] | increased survival | 91 | did not result in a bacteriological cure | 3 to 24 | ≤ 18 | does not occur | 
2 | β-galactosylceramide |  |  |  |  |  |  | does not activate NKT cells
